# Assay results published in patent US6355799B1, “Substituted benzene compounds, process for their preparation, and herbicidal and defoliant compositions containing them” (ISK Americas Incorporated, priority 1997, dated 2002).
# Legend:
# Format in all cases: in vivo
# [1] = tested on: upland rice (Oryza sp., var. Tebonnet, RICE); experiment: Post-emerge test, crop safety; details: post-emerge, 14 days after application, rating scale 0-100
# Summary of the method: (§1)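 Herbicidal damage is scored 0 (none) to 100 (complete plant death) two weeks after a simulated field spray. Rates span 15–1000 g ai/ha, delivered in acetone at 187 l/ha. For post-emergence treatments, plants have 2–3 leaves and the spray carries 0.25% v/v non-ionic surfactant.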
# [2] = tested on: field corn (Zea mays L., var. Dekalb 535, CORN); experiment: Post-emerge test, crop safety; details: post-emerge, 14 days after application, rating scale 0-100
# Summary of the method: as §1
# [3] = tested on: redroot pigweed (Amaranthus retroflexus, AMARE); experiment: Post-emerge test, greenhouse herbicide activity screening; details: post-emerge, 14 days after application
# Summary of the method: as §1
# [4] = tested on: green foxtail (Setaria viridis, SETVI); experiment: as above; details: post-emerge, 14 days after application, rating scale 0-100
# Summary of the method: as §1
# [5] = tested on: lambsquarters (Chenopodium album, CHEAL); experiment: as above; details: post-emerge, 14 days after application, rating scale 0-100
# Summary of the method: as §1
# [6] = tested on: barnyardgrass (Echinochloa crus-galli, ECHCG); experiment: as above; details: post-emerge, 14 days after application, rating scale 0-100
# Summary of the method: as §1
# [7] = tested on: johnsongrass (Sorghum halepense, SORHA); experiment: as above; details: post-emerge, 14 days after application, rating scale 0-100
# Summary of the method: as §1
# [8] = tested on: large crabgrass (Digitaria sanguinalis, DIGSA); experiment: as above; details: post-emerge, 14 days after application, rating scale 0-100
# Summary of the method: as §1
# [9] = tested on: ivyleaf morningglory (Ipomoea hederacea, IPOHE); experiment: as above; details: post-emerge, 14 days after application, rating scale 0-100
# Summary of the method: as §1
# [10] = tested on: velvetleaf (Abutilon theophrasti, ABUTH); experiment: as above; details: post-emerge, 14 days after application, rating scale 0-100
# Summary of the method: as §1
# [11] = tested on: sicklepod (Cassia obtusifolia, CASOB); experiment: as above; details: post-emerge, 14 days after application, rating scale 0-100
# Summary of the method: as §1
# [12] = tested on: upland rice (Oryza sp., var. Tebonnet, RICE); experiment: Pre-emerge test, crop safety; details: for Pre-emerge Herbicidal Activity RICE: crop damage rating 0-100, 14 days after application; for phytotoxicity rating RICE: pre-emerge, 14 days after application, rating scale 0-100
# Summary of the method: (§2)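 Visual ratings on a 0-100 scale (0 no damage, 100 all plants dead) were taken at 14 days after treatment. Rates of 15-1000 g ai/ha in acetone, 187 l/ha, were sprayed onto soil one day after planting (pre-emerge) or onto 2-3 leaf plants with 0.25% v/v surfactant (post-emerge).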
# [13] = tested on: field corn (Zea mays L., var. Dekalb 535, CORN); experiment: Pre-emerge test, crop safety; details: for Pre-emerge Herbicidal Activity CORN: crop damage rating 0-100, 14 days after application; for phytotoxicity rating CORN: pre-emerge, 14 days after application, rating scale 0-100
# Summary of the method: as §2
# [14] = tested on: redroot pigweed (Amaranthus retroflexus, AMARE); experiment: Pre-emerge test, greenhouse herbicide activity screening; details: for Pre-emerge Herbicidal Activity AMARE: phytotoxicity rating 0-100, 14 days after application; for phytotoxicity rating AMARE: pre-emerge, 14 days after application, rating scale 0-100
# Summary of the method: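 Compounds in acetone were track-sprayed at 15-1000 g ai/ha (187 l/ha) on sandy loam pots: pre-emerge one day after seeding, post-emerge at 2-3 leaf stage with 0.25% v/v non-ionic surfactant. Phytotoxicity was rated 14 days later on a 0 (no damage) to 100 (complete death) scale.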
# [15] = tested on: green foxtail (Setaria viridis, SETVI); experiment: as above; details: for Pre-emerge Herbicidal Activity SETVI: phytotoxicity rating 0-100, 14 days after application; for phytotoxicity rating SETVI: pre-emerge, 14 days after application, rating scale 0-100
# Summary of the method: as §1
# [16] = tested on: lambsquarters (Chenopodium album, CHEAL); experiment: as above; details: for Pre-emerge Herbicidal Activity CHEAL: phytotoxicity rating 0-100, 14 days after application; for phytotoxicity rating CHEAL: pre-emerge, 14 days after application, rating scale 0-100
# Summary of the method: as §1
# [17] = tested on: barnyardgrass (Echinochloa crus-galli, ECHCG); experiment: as above; details: for Pre-emerge Herbicidal Activity ECHCG: phytotoxicity rating 0-100, 14 days after application; for phytotoxicity rating ECHCG: pre-emerge, 14 days after application, rating scale 0-100
# Summary of the method: as §1
# [18] = tested on: johnsongrass (Sorghum halepense, SORHA); experiment: as above; details: for Pre-emerge Herbicidal Activity SORHA: phytotoxicity rating 0-100, 14 days after application; for phytotoxicity rating SORHA: pre-emerge, 14 days after application, rating scale 0-100
# Summary of the method: as §1
# [19] = tested on: large crabgrass (Digitaria sanguinalis, DIGSA); experiment: as above; details: for Pre-emerge Herbicidal Activity DIGSA: phytotoxicity rating 0-100, 14 days after application; for phytotoxicity rating DIGSA: pre-emerge, 14 days after application, rating scale 0-100
# Summary of the method: as §1
# [20] = tested on: ivyleaf morningglory (Ipomoea hederacea, IPOHE); experiment: as above; details: for Pre-emerge Herbicidal Activity IPOHE: phytotoxicity rating 0-100, 14 days after application; for phytotoxicity rating IPOHE: pre-emerge, 14 days after application, rating scale 0-100
# Summary of the method: as §1
# [21] = tested on: velvetleaf (Abutilon theophrasti, ABUTH); experiment: as above; details: for Pre-emerge Herbicidal Activity ABUTH: phytotoxicity rating 0-100, 14 days after application; for phytotoxicity rating ABUTH: pre-emerge, 14 days after application, rating scale 0-100
# Summary of the method: as §1
# [22] = tested on: sicklepod (Cassia obtusifolia, CASOB); experiment: as above; details: for Pre-emerge Herbicidal Activity CASOB: phytotoxicity rating 0-100, 14 days after application; for phytotoxicity rating CASOB: pre-emerge, 14 days after application, rating scale 0-100
# Summary of the method: as §1
# [23] = 63 g ai/ha, rating scale 0-100 (0 no damage, 100 complete death)
# [24] = 250 g ai/ha, rating scale 0-100
structure (smiles),measurement,setting,value
COc1c(Cl)cc(F)c(-n2c(=O)cc(C(F)(F)F)n(C)c2=O)c1NC(=O)OCc1c(F)cccc1F [4-29],phytotoxicity rating RICE (crop damage),[1]; 63 g ai/ha,60
same,phytotoxicity rating RICE (crop damage),[1]; 250 g ai/ha,85
same,phytotoxicity rating CORN (crop damage),[2]; 63 g ai/ha,80
same,phytotoxicity rating CORN (crop damage),[2]; 250 g ai/ha,100
same,phytotoxicity rating AMARE,[3]; [23],100
same,phytotoxicity rating AMARE,[3]; [24],100
same,phytotoxicity rating SETVI,[4]; 63 g ai/ha,80
same,phytotoxicity rating SETVI,[4]; 250 g ai/ha,99
same,phytotoxicity rating CHEAL,[5]; 63 g ai/ha,90
same,phytotoxicity rating CHEAL,[5]; 250 g ai/ha,100
same,phytotoxicity rating ECHCG,[6]; 63 g ai/ha,70
same,phytotoxicity rating ECHCG,[6]; 250 g ai/ha,90
same,phytotoxicity rating SORHA,[7]; 63 g ai/ha,60
same,phytotoxicity rating SORHA,[7]; 250 g ai/ha,100
same,phytotoxicity rating DIGSA,[8]; 63 g ai/ha,50
same,phytotoxicity rating DIGSA,[8]; 250 g ai/ha,90
same,phytotoxicity rating IPOHE,[9]; 63 g ai/ha,100
same,phytotoxicity rating IPOHE,[9]; 250 g ai/ha,100
same,phytotoxicity rating ABUTH,[10]; 63 g ai/ha,100
same,phytotoxicity rating ABUTH,[10]; 250 g ai/ha,100
same,phytotoxicity rating CASOB,[11]; 63 g ai/ha,90
same,phytotoxicity rating CASOB,[11]; 250 g ai/ha,100
same,Pre-emerge Herbicidal Activity RICE,[12]; 63 g ai/ha,50
same,Pre-emerge Herbicidal Activity RICE,[12]; 250 g ai/ha,85
same,Pre-emerge Herbicidal Activity CORN,[13]; 63 g ai/ha,80
same,Pre-emerge Herbicidal Activity CORN,[13]; 250 g ai/ha,95
same,Pre-emerge Herbicidal Activity AMARE,[14]; 63 g ai/ha,100
same,Pre-emerge Herbicidal Activity AMARE,[14]; 250 g ai/ha,100
same,Pre-emerge Herbicidal Activity SETVI,[15]; 63 g ai/ha,100
same,Pre-emerge Herbicidal Activity SETVI,[15]; 250 g ai/ha,100
same,Pre-emerge Herbicidal Activity CHEAL,[16]; 63 g ai/ha,100
same,Pre-emerge Herbicidal Activity CHEAL,[16]; 250 g ai/ha,100
same,Pre-emerge Herbicidal Activity ECHCG,[17]; 63 g ai/ha,70
same,Pre-emerge Herbicidal Activity ECHCG,[17]; 250 g ai/ha,90
same,Pre-emerge Herbicidal Activity SORHA,[18]; 63 g ai/ha,70
same,Pre-emerge Herbicidal Activity SORHA,[18]; 250 g ai/ha,90
same,Pre-emerge Herbicidal Activity DIGSA,[19]; 63 g ai/ha,100
same,Pre-emerge Herbicidal Activity DIGSA,[19]; 250 g ai/ha,100
same,Pre-emerge Herbicidal Activity IPOHE,[20]; 63 g ai/ha,70
same,Pre-emerge Herbicidal Activity IPOHE,[20]; 250 g ai/ha,90
same,Pre-emerge Herbicidal Activity ABUTH,[21]; 63 g ai/ha,100
same,Pre-emerge Herbicidal Activity ABUTH,[21]; 250 g ai/ha,100
same,Pre-emerge Herbicidal Activity CASOB,[22]; 63 g ai/ha,40
same,Pre-emerge Herbicidal Activity CASOB,[22]; 250 g ai/ha,80
COCC(C)=NNc1c(OC)c(Cl)cc(F)c1-n1c(=O)cc(C(F)(F)F)n(C)c1=O [15-13],Post-emerge Herbicidal Activity RICE (crop damage rating),[1]; 63 g ai/ha,60
same,Post-emerge Herbicidal Activity RICE (crop damage rating),[1]; 250 g ai/ha,90
same,Post-emerge Herbicidal Activity CORN (crop damage rating),[2]; 63 g ai/ha,15
same,Post-emerge Herbicidal Activity CORN (crop damage rating),[2]; 250 g ai/ha,50
same,Post-emerge Herbicidal Activity AMARE (phytotoxicity rating),[3]; [23],80
same,Post-emerge Herbicidal Activity AMARE (phytotoxicity rating),[3]; [24],95
same,Post-emerge Herbicidal Activity SETVI (phytotoxicity rating),[4]; 63 g ai/ha,20
same,Post-emerge Herbicidal Activity SETVI (phytotoxicity rating),[4]; 250 g ai/ha,60
same,Post-emerge Herbicidal Activity CHEAL (phytotoxicity rating),[5]; 63 g ai/ha,95
same,Post-emerge Herbicidal Activity CHEAL (phytotoxicity rating),[5]; 250 g ai/ha,100
same,Post-emerge Herbicidal Activity ECHCG (phytotoxicity rating),[6]; 63 g ai/ha,20
same,Post-emerge Herbicidal Activity ECHCG (phytotoxicity rating),[6]; 250 g ai/ha,85
same,Post-emerge Herbicidal Activity SORHA (phytotoxicity rating),[7]; 63 g ai/ha,10
same,Post-emerge Herbicidal Activity SORHA (phytotoxicity rating),[7]; 250 g ai/ha,70
same,Post-emerge Herbicidal Activity DIGSA (phytotoxicity rating),[8]; 63 g ai/ha,10
same,Post-emerge Herbicidal Activity DIGSA (phytotoxicity rating),[8]; 250 g ai/ha,70
same,Post-emerge Herbicidal Activity IPOHE (phytotoxicity rating),[9]; 63 g ai/ha,100
same,Post-emerge Herbicidal Activity IPOHE (phytotoxicity rating),[9]; 250 g ai/ha,100
same,Post-emerge Herbicidal Activity ABUTH (phytotoxicity rating),[10]; 63 g ai/ha,100
same,Post-emerge Herbicidal Activity ABUTH (phytotoxicity rating),[10]; 250 g ai/ha,100
same,Post-emerge Herbicidal Activity CASOB (phytotoxicity rating),[11]; 63 g ai/ha,60
same,Post-emerge Herbicidal Activity CASOB (phytotoxicity rating),[11]; 250 g ai/ha,100
same,phytotoxicity rating RICE,[12]; 46 g ai/ha,90
same,phytotoxicity rating RICE,[12]; 185 g ai/ha,100
same,phytotoxicity rating CORN,[13]; 46 g ai/ha,35
same,phytotoxicity rating CORN,[13]; 185 g ai/ha,100
same,phytotoxicity rating AMARE,[14]; 46 g ai/ha,100
same,phytotoxicity rating AMARE,[14]; 185 g ai/ha,100
same,phytotoxicity rating SETVI,[15]; 46 g ai/ha,100
same,phytotoxicity rating SETVI,[15]; 185 g ai/ha,100
same,phytotoxicity rating CHEAL,[16]; 46 g ai/ha,100
same,phytotoxicity rating CHEAL,[16]; 185 g ai/ha,100
same,phytotoxicity rating ECHCG,[17]; 46 g ai/ha,99
same,phytotoxicity rating ECHCG,[17]; 185 g ai/ha,100
same,phytotoxicity rating SORHA,[18]; 46 g ai/ha,99
same,phytotoxicity rating SORHA,[18]; 185 g ai/ha,100
same,phytotoxicity rating DIGSA,[19]; 46 g ai/ha,100
same,phytotoxicity rating DIGSA,[19]; 185 g ai/ha,100
same,phytotoxicity rating IPOHE,[20]; 46 g ai/ha,100
same,phytotoxicity rating IPOHE,[20]; 185 g ai/ha,100
same,phytotoxicity rating ABUTH,[21]; 46 g ai/ha,100
same,phytotoxicity rating ABUTH,[21]; 185 g ai/ha,100
same,phytotoxicity rating CASOB,[22]; 46 g ai/ha,100
same,phytotoxicity rating CASOB,[22]; 185 g ai/ha,100
